{"source": "patent US8614222B2", "about": "“Methods of preventing and treating low bone mass diseases” (The Trustees of Columbia University in the City of New York, priority 2008, dated 2013)", "origin": "cited, not measured here", "biological_target": "rb 5-HT1B receptors (Oryctolagus cuniculus, UniProt P49144)", "sequence (P49144 whole entry)": "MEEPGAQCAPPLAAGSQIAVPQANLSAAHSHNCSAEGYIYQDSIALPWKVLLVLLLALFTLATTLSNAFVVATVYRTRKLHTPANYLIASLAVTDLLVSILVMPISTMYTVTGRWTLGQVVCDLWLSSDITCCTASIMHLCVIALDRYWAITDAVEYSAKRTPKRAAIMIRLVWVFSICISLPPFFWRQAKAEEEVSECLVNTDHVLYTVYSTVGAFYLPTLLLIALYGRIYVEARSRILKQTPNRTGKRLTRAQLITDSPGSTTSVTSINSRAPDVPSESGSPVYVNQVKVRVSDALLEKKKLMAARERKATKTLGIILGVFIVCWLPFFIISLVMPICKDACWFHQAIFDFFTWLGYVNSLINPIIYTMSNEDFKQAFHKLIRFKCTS", "details": "cited from earlier work"}
{"molecule": "O=C(c1ccc(F)cc1)C1CCN(CCn2c(=O)[nH]c3ccccc3c2=O)CC1", "note": "[ketanserin]", "values": [{"measurement": "behaviour at rb 5-HT1B receptors", "result": "as silent, competitive antagonists"}]}
